Measurements from patent US20060165744A1, “Combination liposomal formulations” (NeoPharm, Inc, priority 2003, published 2006).

How the values were obtained:
P388/ADR cells = assay: Anti-tumor efficacy on tumor bearing mice (increase in lifespan); assay type: in vivo, CD2F1 female mice; details: 1.0 mg/kg DOX, I.V. for five consecutive days
Protocol: After 24 hours, mice were randomly divided into different treatment groups (5 mice/group) and vehicle controls or test article formulations were administered I.V. for five consecutive days. Injection volume was based on individual mouse body w eight. Mice were weighed prior to dosing on Days 1-5. […] Mean survival time (MST) was determined and the percent increase in lifespan (% ILS) was calculated as follows: % ILS=[(100×MST of Treatment Group)/(MST of Control Group)]−100% ILS≧25% is considered as a positive response.

[1] = tested on: P388/ADR (Adriamycin-resistant murine leukemia) cells; assay: Cytotoxicity by sulforhodamine B assay, P388/ADR; assay type: cell-based; details: Mus musculus, treated 48 hrs, read-out: GI50 values (mM) against drug-resistant cancer cell lines
Protocol: (§1) SKVLB (Vincristine-resistant human ovarian) cells were obtained from Georgetown University and maintained in RPMI 1640 medium containing 10% heat-inactivated FBS, penicillin (100 units/mL) and streptomycin ([…]) with […] Vincristine. P388/ADR (Adriamycin-resistant murine leukemia) cells were purchased from National Cancer Institute (Frederick, Md.) and maintained in RPMI 1640 medium containing 10% heat-inactivated FBS, penicillin (100 units/mL) and streptomycin ([…]). SKVLB cells were cultured in drug-free media for at least a week before studies. The cells (10,000 cells/well for SKVLB and 25,000 cells/well for P388/ADR) were plated in a 96-well plate overnight and treated with doxorubicin, LEP or LEPD for 48 hrs. After incubation, the cytotoxicity was determined by a sulforhodamine B assay.

[2] = Percent entrapment of doxorubicin or mitoxantrone in reconstituted LEP (Sephardex G-25 column, UV absorbance); assay type: physicochemical
Protocol: Either doxorubicin (0.5 to 1.5 mg/ml) or mitoxantrone (0.5 to 1.5 mg/ml) was dissolved in deionized water, and these solutions were employed to reconstitute the lyophilized LEP cakes. The drug to lipid ratio varied from 1:120 to 1:24 (wt/wt) for doxorubicin and 1:120 to 1:24 (wt/wt) for mitoxantrone. Following reconstitution, the liposomal preparation was subjected to column chromatography using Sephardex G-25 to separate the free doxorubicin or mitoxantrone from the drug bound to the liposomes. The pre and post column samples were solubilized in methanol and the absorbance values were measured at appropriate wavelengths. The absorbance of doxorubicin (480 nm) and mitoxantrone (660 nm) was measured in the formulations both prior to and after column chromatography, and the percent entrapment was calculated using the following equation: % entrapment=[absorbance of drug after column/absorbance of drug before column]×100

[3] = tested on: SKVLB (Vincristine-resistant human ovarian) cells; assay: Cytotoxicity by sulforhodamine B assay, SKVLB; assay type: cell-based; details: treated 48 hrs, read-out: GI50 values (mM) against drug-resistant cancer cell lines
Protocol: as §1

[4] = Effect of mitoxantrone or doxorubicin loading on entrapment of paclitaxel in LEP-ETU; assay type: physicochemical
Protocol: Mitoxantrone or doxorubicin (0.5 to 1.5 mg) was loaded into LEP-ETU.

COc1cccc2c1C(=O)c1c(O)c3c(c(O)c1C2=O)C[C@@](O)(C(=O)CO)C[C@@H]3O[C@H]1C[C@H](N)[C@H](O)[C@H](C)O1 [Doxorubicin (DOX), doxorubicin]
% ILS (P388/ADR cells): 18.20% | GI50 [1]: 0.015 mM | DOX % Entrapment UV 480 nm ([2]; Initial DOX concentration 0.50 mg/mL): 93% | DOX % Entrapment UV 480 nm ([2]; Initial DOX concentration 0.75 mg/mL): 92% | DOX % Entrapment UV 480 nm ([2]; Initial DOX concentration 1.00 mg/mL): 90% | DOX % Entrapment UV 480 nm ([2]; Initial DOX concentration 1.50 mg/mL): 78% | GI50 [3]: 0.016 mM

O=C1c2c(O)ccc(O)c2C(=O)c2c(NCCNCCO)ccc(NCCNCCO)c21 [MTO, mitoxantrone]
MTO % Entrapment UV 660 nm ([2]; Initial MTO concentration 0.50 mg/mL): 97% | MTO % Entrapment UV 660 nm ([2]; Initial MTO concentration 0.75 mg/mL): 99% | MTO % Entrapment UV 660 nm ([2]; Initial MTO concentration 1.00 mg/mL): 100% | MTO % Entrapment UV 660 nm ([2]; Initial MTO concentration 1.50 mg/mL): 101%

CC(=O)O[C@H]1C(=O)[C@@]2(C)[C@H]([C@H](OC(=O)c3ccccc3)[C@]3(O)C[C@H](OC(=O)[C@H](O)[C@@H](NC(=O)c4ccccc4)c4ccccc4)C(C)=C1C3(C)C)[C@]1(OC(C)=O)CO[C@@H]1C[C@@H]2O [Paclitaxel, paclitaxel]
Paclitaxel Entrapment (%) With DOX ([4]; Initial DOX 0.50 mg/mL): 102% | Paclitaxel Entrapment (%) With DOX ([4]; Initial DOX 0.75 mg/mL): 102% | Paclitaxel Entrapment (%) With DOX ([4]; Initial DOX 1.00 mg/mL): 102% | Paclitaxel Entrapment (%) With DOX ([4]; Initial DOX 1.50 mg/mL): 109%
